According to PMC7291522 (Thrombosis Journal, 2020):

Experiments:
[1] = system: blood coagulation; experiment: Activated partial thromboplastin time (aPTT), HemosIL SynthASil reagent; format: in vivo, human; settings: 30 mg edoxaban, Day 3
Experimental: (§1) Blood was collected in a vacuum blood collection tube containing 3.2% sodium citrate, and the schedule for the blood sample collection is shown in Table 1. Blood coagulation marker PT was measured by PT reagent Thrombocheck-PT in system CS-200i (Sysmex Corporation, Japan); aPTT by aPTT reagent HemosIL SynthASil in system ACL TOP Base (IL, Japan; Instrumentation Laboratory, USA) and F1 + 2 by ELISA Enzygnost F1 + 2 monoclonal reagent in system Behring ELISA Processor III and DiaSorin (BIT Analytical Instruments GmbH, Germany). These assays were carried out at LSI Medience Corporation (Tokyo, Japan). We measured PRU with VerifyNow system (Instrumentation Laboratory, Bedford, MA, USA) at Sumida Hospital.

[2] = system: healthy elderly Japanese male subjects; experiment: Bleeding time (BT) by the Ivy method; settings: 30 mg edoxaban once daily for 3 days, Day 3, 3 h after administration
From the text: (§2) This study was a randomized, open-label, parallel-group, repeated-dose study conducted at a single center.
(§3) We measured BT by the Ivy method [12] using a needle type of BD Microtainer Contact-Activated Lancet device (Becton, Dickinson and Company, USA). The incision was made in the lateral aspect of the forearm by puncturing at one arbitrary site with the device. After the incision, we blotted the blood every 30 s with filter paper until the bleeding reached hemostasis and recorded the time from the puncture to the end of bleeding. When the time to hemostasis exceeded 10 min, it was recorded as such, ending the observation. […] Baseline BT was measured on the day of admission at approximately the same time of day as the BT evaluations on Day 3 and Day 8, 3 hours after the administration of study drug(s).
(§4) For the primary endpoint analysis, a logarithmically converted value of BT for each sample was the dependent variable in a linear mixed model with fixed and random effects.

[3] = system: healthy elderly Japanese male subjects; experiment: Safety: adverse events in the clinical pharmacology study; settings: 30 mg edoxaban alone, 24 participants
[4] = system: platelet aggregation; experiment: P2Y12 reaction units (PRU), VerifyNow system; format: in vivo, human; settings: 30 mg edoxaban alone, Day 3
Experimental: as §1

[5] = Plasma edoxaban pharmacokinetics (LC-MS/MS, noncompartmental analysis); settings: 30 mg edoxaban alone, Day 3; for AUC / Cmax / Tmax: male, human, in vivo, 30 mg; for AUC: AUCtau,ss of edoxaban; for Cmax: Cmax,ss of edoxaban; for Tmax: tmax,ss of edoxaban
Experimental: Plasma samples were obtained by centrifugation, and the samples were immediately frozen at − 20 °C or lower.
Summary statistics were calculated for baseline and postdose values for the primary endpoint of BT and secondary endpoints of PD indices (PT, aPTT, F1 + 2, PRU) for each target population. […] 8.1 based on Model 1200 (Extravascular). AUCtau,ss was calculated by the linear-Log trapezoidal method.
For the secondary endpoints analysis, we used the logarithmically converted PK parameters (Cmax,ss, AUCtau,ss, tmax,ss) as dependent variables in a linear mixed model with fixed and variable effects.

[6] = system: healthy elderly Japanese male subjects; settings: in vivo
From the text: as §2, §3, §4

SMILES: CN1CCc2nc(C(=O)N[C@@H]3C[C@@H](C(=O)N(C)C)CC[C@@H]3NC(=O)C(=O)Nc3ccc(Cl)cn3)sc2C1 [Edoxaban, edoxaban]
- aPTT, mean ([1]; Group 1, baseline 31.9): 38.0 s
- aPTT, mean ([1]; Group 2, baseline 34.2): 39.9 s
- Bleeding time, Mean (SD) ([2]; Group 1, n = 12): 3.5 (0.6) min
- Bleeding time, Median (IQR) ([2]; Group 1, n = 12): 3.5 (3.0–4.0) min
- Bleeding time, Mean (SD) ([2]; Group 2, n = 12): 4.7 (1.6) min
- Bleeding time, Median (IQR) ([2]; Group 2, n = 12): 4.5 (3.3–6.0) min
- Positive results in the fecal occult blood test (number) [3]: four
- Effect on PRU [4]: essentially had no effect
- tmax,ss of edoxaban, Mean (SD) ([5]; Group 2, n = 12): 1.0 (0.84) h
- AUC ([5]; Mean (SD), Group 1, n = 12): 1060 ng·h/mL
- AUC ([5]; Mean (SD), Group 2, n = 12): 1070 ng·h/mL
- AUC ([5]; Median (IQR), Group 1, n = 12): 1020 ng·h/mL
- AUC ([5]; Median (IQR), Group 2, n = 12): 992 ng·h/mL
- Cmax ([5]; Mean (SD), Group 1, n = 12): 216 ng/mL
- Cmax ([5]; Mean (SD), Group 2, n = 12): 191 ng/mL
- Cmax ([5]; Median (IQR), Group 1, n = 12): 200 ng/mL
- Cmax ([5]; Median (IQR), Group 2, n = 12): 170 ng/mL
- Tmax ([5]; Mean (SD), Group 1, n = 12): 72 min
- Tmax ([5]; Median (IQR), Group 1, n = 12): 45 min
- Tmax ([5]; Median (IQR), Group 2, n = 12): 30 min

SMILES: CC(=O)Oc1cc2c(s1)CCN(C(C(=O)C1CC1)c1ccccc1F)C2 (stereo not drawn) [prasugrel]
- Dose dependence of the effect of prasugrel on BT [6]: dose-dependent
